Measured values from ChEMBL document CHEMBL5725519, “Substituted benzamides and methods of use thereof” (2017).

Tests used:
[1] = biological target: Sodium channel protein type 9 subunit alpha (Homo sapiens, UniProt Q15858); test: (§1) Control sodium currents were measured in 0.5% DMSO.; type: cell-based
[2] = as §1; type: cell-based

Sequence of Sodium channel protein type 9 subunit alpha (Q15858 whole entry): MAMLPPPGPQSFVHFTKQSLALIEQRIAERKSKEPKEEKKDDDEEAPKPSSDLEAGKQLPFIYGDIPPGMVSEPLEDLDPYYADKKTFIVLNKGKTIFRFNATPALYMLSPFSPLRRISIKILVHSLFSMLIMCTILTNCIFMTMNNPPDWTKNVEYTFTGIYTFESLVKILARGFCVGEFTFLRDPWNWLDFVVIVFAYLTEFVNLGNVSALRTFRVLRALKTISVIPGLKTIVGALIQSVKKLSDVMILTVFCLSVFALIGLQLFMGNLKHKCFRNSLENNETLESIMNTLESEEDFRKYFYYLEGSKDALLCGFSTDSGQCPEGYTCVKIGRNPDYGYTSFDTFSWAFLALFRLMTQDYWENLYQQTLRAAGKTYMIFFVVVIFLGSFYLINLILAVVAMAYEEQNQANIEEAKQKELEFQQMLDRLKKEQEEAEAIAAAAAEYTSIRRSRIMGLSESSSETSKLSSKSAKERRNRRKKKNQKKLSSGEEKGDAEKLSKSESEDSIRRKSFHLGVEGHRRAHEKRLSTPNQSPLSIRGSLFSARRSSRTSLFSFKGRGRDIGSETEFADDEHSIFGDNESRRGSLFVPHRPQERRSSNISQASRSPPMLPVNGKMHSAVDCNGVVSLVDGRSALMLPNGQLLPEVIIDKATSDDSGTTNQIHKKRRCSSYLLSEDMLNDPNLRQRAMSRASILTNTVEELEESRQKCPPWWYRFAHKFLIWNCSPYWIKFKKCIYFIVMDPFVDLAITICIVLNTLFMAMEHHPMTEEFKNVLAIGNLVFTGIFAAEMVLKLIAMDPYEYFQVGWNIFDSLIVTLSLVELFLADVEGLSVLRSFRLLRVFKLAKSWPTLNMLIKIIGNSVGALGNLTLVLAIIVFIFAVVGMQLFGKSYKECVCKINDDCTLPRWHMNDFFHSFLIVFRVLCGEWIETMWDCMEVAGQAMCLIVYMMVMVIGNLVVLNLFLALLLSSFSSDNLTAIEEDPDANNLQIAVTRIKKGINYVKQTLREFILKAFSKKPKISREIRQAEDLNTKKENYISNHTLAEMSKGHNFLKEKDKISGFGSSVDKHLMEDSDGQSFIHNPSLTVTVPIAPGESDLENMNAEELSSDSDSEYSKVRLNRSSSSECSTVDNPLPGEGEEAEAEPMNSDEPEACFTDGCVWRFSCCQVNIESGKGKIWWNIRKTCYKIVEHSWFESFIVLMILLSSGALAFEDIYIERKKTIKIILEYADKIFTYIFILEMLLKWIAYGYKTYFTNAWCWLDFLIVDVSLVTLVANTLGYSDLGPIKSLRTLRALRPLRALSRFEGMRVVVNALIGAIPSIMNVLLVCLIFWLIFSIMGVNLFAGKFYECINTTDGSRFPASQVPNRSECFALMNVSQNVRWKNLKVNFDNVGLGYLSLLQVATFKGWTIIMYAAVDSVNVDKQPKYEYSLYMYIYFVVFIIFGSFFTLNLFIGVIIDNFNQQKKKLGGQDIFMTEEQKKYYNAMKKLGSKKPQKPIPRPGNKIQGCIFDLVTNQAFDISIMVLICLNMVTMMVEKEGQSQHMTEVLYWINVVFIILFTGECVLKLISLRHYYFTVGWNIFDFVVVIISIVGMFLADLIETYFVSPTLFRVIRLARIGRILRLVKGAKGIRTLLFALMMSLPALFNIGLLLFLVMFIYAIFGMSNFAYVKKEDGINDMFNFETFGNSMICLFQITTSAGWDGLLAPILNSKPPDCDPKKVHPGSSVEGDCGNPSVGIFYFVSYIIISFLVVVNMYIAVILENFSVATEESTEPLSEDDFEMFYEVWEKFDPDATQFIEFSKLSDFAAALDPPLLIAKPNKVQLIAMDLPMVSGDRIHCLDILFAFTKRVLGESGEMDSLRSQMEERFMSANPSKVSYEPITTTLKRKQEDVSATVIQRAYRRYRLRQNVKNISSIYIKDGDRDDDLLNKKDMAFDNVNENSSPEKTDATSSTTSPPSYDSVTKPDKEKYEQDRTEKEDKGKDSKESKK

| SMILES | IC50 [1] [nM] | IC50 [2] [nM] |
| --- | --- | --- |
| O=C(NS(=O)(=O)N1CCC1)c1cc(C2CC2)c(OCC2CC3CCC(C2)N3C(c2ccccc2)c2ccccc2)cc1F (configuration not stated) | 5.4 | – |
| CS(=O)(=O)NC(=O)c1cc(C2CC2)c(OCC2CCN(Cc3ccc(Cl)c(C(F)(F)F)c3)CC2)cc1F | – | 169 |
